Assay [1] relates to D. melanogaster adult gut. Description: adult gut contraction. In kind it is in vivo, Drosophila melanogaster. Conditions: 0.1 nM; without PI; relative to the effect of DMS; mean.
For assay [2], the system named is D. melanogaster pupal heart (white prepupae). It counts as in vivo, Drosophila melanogaster. The conditions noted are these: 1 uM; without PI; relative to the effect of DMS; mean.

Turning to VFLRFamide [[6-10]DMS], the “% Inhibition Adult gut (without protease inhibitor)” value in assay [1] stood at 78%. Further, in assay [2], the “% Inhibition Pupal heart (without protease inhibitor)” value was 103%.

The values are drawn from article PMC3449313 (Peptides, 2012).
